Measured values reported in PMC3418602 (2009).

What was measured:
Test in all cases: TR-FRET peptide phosphorylation kinase assay
Type in all cases: biochemical
[1] = biological target: JAK3 (Homo sapiens, UniProt P52333)
[2] = biological target: JAK2 (Homo sapiens, UniProt O60674)
[3] = biological target: JAK1 (Homo sapiens, UniProt P23458)
JAK1, sequence (P23458 850-1154 limits assumed): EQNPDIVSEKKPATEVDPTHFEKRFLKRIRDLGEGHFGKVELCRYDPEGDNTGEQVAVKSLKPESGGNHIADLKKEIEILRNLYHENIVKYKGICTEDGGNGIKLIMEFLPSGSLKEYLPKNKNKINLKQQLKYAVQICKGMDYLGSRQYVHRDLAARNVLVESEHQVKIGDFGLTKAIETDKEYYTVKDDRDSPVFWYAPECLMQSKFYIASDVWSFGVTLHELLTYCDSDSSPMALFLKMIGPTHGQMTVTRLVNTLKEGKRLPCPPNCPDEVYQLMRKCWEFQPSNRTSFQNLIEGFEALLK

JAK3, sequence (P52333 781-1124 limits assumed): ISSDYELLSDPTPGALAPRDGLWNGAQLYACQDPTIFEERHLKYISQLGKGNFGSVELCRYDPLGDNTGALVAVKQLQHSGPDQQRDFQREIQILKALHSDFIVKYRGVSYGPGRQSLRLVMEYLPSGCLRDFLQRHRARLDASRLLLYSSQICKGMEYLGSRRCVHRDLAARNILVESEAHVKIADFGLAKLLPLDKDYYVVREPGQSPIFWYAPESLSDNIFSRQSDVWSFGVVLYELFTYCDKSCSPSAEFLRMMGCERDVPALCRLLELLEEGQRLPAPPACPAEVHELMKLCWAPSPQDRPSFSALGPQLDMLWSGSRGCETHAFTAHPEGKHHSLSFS
JAK2, sequence (O60674 840-1132 limits assumed): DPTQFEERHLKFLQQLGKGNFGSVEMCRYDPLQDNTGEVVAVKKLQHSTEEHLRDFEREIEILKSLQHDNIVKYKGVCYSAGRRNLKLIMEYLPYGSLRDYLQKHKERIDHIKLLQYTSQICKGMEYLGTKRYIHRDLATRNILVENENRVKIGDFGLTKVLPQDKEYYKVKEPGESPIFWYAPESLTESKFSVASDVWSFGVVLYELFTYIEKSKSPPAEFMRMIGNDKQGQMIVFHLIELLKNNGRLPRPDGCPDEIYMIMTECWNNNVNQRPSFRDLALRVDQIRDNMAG

`N#C/C(=C\c1ccc(O)c(O)c1)C(=O)NCc1ccccc1` [AG490] was tested, and the IC50 [1] was 15.4 µM, the IC50 [2] was 11.2 µM and the IC50 [3] was 10.2 µM.
